What was measured:
[1] = target: recombinant human Mcl-1 (residues 171-327) / Bim interaction (Homo sapiens (Human), UniProt Q07820); experiment: biochemical; format: binding; conditions: TR-FRET, Mcl-1(171-327) / biotin-Bim (51-76); read-out: Mcl-1 HTRF IC50
[2] = tested on: human multiple myeloma cell line, OPM-2; experiment: Cell viability assay (OPM-2 10 FBS), CellTiter-Glo; format: cell-based; conditions: Homo sapiens, OPM-2, 16 h, read-out: OPM-2 10% FBS IC50 IP, OPM-2 cells, 10% FBS, 16 h, CellTiter-Glo
Procedure, shortened: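 Serially diluted test compounds are incubated 16 h with cells (3000/well) in RPMI 1640 supplemented with 10% FBS. Viability is then measured by luminescence and IC50 calculated by 4-parameter logistic fit.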

Chain of recombinant human Mcl-1 (residues 171-327) / Bim interaction (Q07820 171-327): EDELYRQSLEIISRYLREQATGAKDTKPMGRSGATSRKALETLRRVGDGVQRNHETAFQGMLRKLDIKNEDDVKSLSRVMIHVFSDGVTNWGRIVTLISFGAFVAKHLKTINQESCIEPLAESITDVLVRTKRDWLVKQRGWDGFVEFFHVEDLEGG

| Compound | IC50 [1] | IC50 [2] |
| --- | --- | --- |
| CO[C@@]1(Cc2cc(C)ccn2)/C=C/C[C@H](C)[C@@H](C)S(=O)(=O)NC(=O)c2ccc3c(c2)N(C[C@@H]2CC[C@H]21)C[C@@]1(CCCc2cc(Cl)ccc21)CO3 [Example 100560, (1S,3′R,6′R,7′S,8′E,11′S,12′R)-6-chloro-7′-methoxy-11′,12′-dimethyl-7′-((4-methyl-2-pyridinyl)methyl)-3,4-dihydro-2H,15′H-spiro[naphthalene-1,22′-[20]oxa[13]thia[1,14]diazatetracyclo [14.7.2.0~3,6~.0~19,24~]pentacosa[8,16,18,24]tetraen]-15′-one 13′,13′-dioxide] | 0.041 nM | 2020 nM |
| C=C(F)C[C@@]1(O)/C=C/C[C@H](C)[C@@H](C)S(=O)(=O)NC(=O)c2ccc3c(c2)N(C[C@@H]2CC[C@H]21)C[C@@]1(CCCc2cc(Cl)ccc21)CO3 [Example 100564, (1S,3′R,6′R,7′R,8′E,11′S,12′R)-6-chloro-7′-(2-fluoro-2-propen-1-yl)-7′-hydroxy-11′,12′-dimethyl-3,4-dihydro-2H,15′H-spiro[naphthalene-1,22′-[20]oxa[13]thia[1,14]diazatetracyclo [14.7.2.0~3,6~.0~19,24~]pentacosa[8,16,18,24]tetraen]-15′-one 13′,13′-dioxide] | 0.333 nM | 1430 nM |
| C=C(F)C[C@]1(O)/C=C/C[C@H](C)[C@@H](C)S(=O)(=O)NC(=O)c2ccc3c(c2)N(C[C@@H]2CC[C@H]21)C[C@@]1(CCCc2cc(Cl)ccc21)CO3 [Example 100565, (1S,3′R,6′R,7′S,8′E,11′S,12′R)-6-chloro-7′-(2-fluoro-2-propen-1-yl)-7′-hydroxy-11′,12′-dimethyl-3,4-dihydro-2H,15′H-spiro[naphthalene-1,22′-[20]oxa[13]thia[1,14]diazatetracyclo [14.7.2.0~3,6~.0~19,24~]pentacosa[8,16,18,24]tetraen]-15′-one 13′,13′-dioxide] | 1.54 nM | 2060 nM |
| C[C@@H]1CS(=O)(=O)NC(=O)c2ccc3c(c2)N(C[C@@H]2CC[C@H]2[C@](O)(C2SCCCS2)/C=C/[C@@H]1C)C[C@@]1(CCCc2cc(Cl)ccc21)CO3 [Example 100566, (1S,3′R,6′R,7′S,8′E,10′S,11′S)-6-chloro-7′-(1,3-dithian-2-yl)-7′-hydroxy-10′,11′-dimethyl-3,4-dihydro-2H,15′H-spiro[naphthalene-1,22′-[20]oxa[13]thia[1,14]diazatetracyclo [14.7.2.0~3,6~.0~19,24~]pentacosa[8,16,18,24]tetraen]-15′-one 13′,13′-dioxide] | 0.142 nM | 590 nM |
| CO[C@@]1(C2SCCCS2)/C=C/[C@H](C)[C@H](C)CS(=O)(=O)NC(=O)c2ccc3c(c2)N(C[C@@H]2CC[C@H]21)C[C@@]1(CCCc2cc(Cl)ccc21)CO3 [Example 100567, (1S,3′R,6′R,7′S,8′E,10′S,11′S)-6-chloro-7′-(1,3-dithian-2-yl)-7′-methoxy-10′,11′-dimethyl-3,4-dihydro-2H,15′H-spiro[naphthalene-1,22′-[20]oxa[13]thia[1,14]diazatetracyclo [14.7.2.0~3,6~.0~19,24~]pentacosa[8,16,18,24]tetraen]-15′-one 13′,13′-dioxide] | 0.125 nM | 249 nM |
| C=C(F)C[C@@]1(OC)/C=C/C[C@H](C)[C@@H](C)S(=O)(=O)NC(=O)c2ccc3c(c2)N(C[C@@H]2CC[C@H]21)C[C@@]1(CCCc2cc(Cl)ccc21)CO3 [Example 100568, (1S,3′R,6′R,7′R,8′E,11′S,12′R)-6-chloro-7′-(2-fluoro-2-propen-1-yl)-7′-methoxy-11′,12′-dimethyl-3,4-dihydro-2H,15′H-spiro[naphthalene-1,22′-[20]oxa[13]thia[1,14]diazatetracyclo [14.7.2.0~3,6~.0~19,24~]pentacosa[8,16,18,24]tetraen]-15′-one 13′,13′-dioxide] | 0.431 nM | 1540 nM |
| CO[C@]1(C2SCCCS2)/C=C/[C@H](C)[C@H](C)CS(=O)(=O)NC(=O)c2ccc3c(c2)N(C[C@@H]2CC[C@H]21)C[C@@]1(CCCc2cc(Cl)ccc21)CO3 [Example 100569, (1S,3′R,6′R,7′R,8′E,10′S,11′S)-6-chloro-7′-(1,3-dithian-2-yl)-7′-methoxy-10′,11′-dimethyl-3,4-dihydro-2H,15′H-spiro[naphthalene-1,22′-[20]oxa[13]thia[1,14]diazatetracyclo [14.7.2.0~3,6~.0~19,24~]pentacosa[8,16,18,24]tetraen]-15′-one 13′,13′-dioxide] | 2.48 nM | 2000 nM |
| CO[C@@]1(Cc2nc(CO)co2)/C=C/C[C@H](C)[C@@H](C)S(=O)(=O)NC(=O)c2ccc3c(c2)N(C[C@@H]2CC[C@H]21)C[C@@]1(CCCc2cc(Cl)ccc21)CO3 [Example 100570, (1S,3′R,6′R,7′S,8′E,11′S,12′R)-6-chloro-7′-((4-(hydroxymethyl)-1,3-oxazol-2-yl)methyl)-7′-methoxy-11′,12′-dimethyl-3,4-dihydro-2H,15′H-spiro[naphthalene-1,22′-[20]oxa[13]thia[1,14]diazatetracyclo [14.7.2.0~3,6~.0~19,24~]pentacosa[8,16,18,24]tetraen]-15′-one 13′,13′-dioxide] | 3.38 nM | 5050 nM |
| COCC[C@@H]1[C@@H](C)C/C=C/[C@@](C=O)(OC)[C@@H]2CC[C@H]2CN2C[C@@]3(CCCc4cc(Cl)ccc43)COc3ccc(cc32)C(=O)NS1(=O)=O [Example 100571, (1S,3′R,6′R,7′R,8′E,11′S,12′R)-6-chloro-7′-methoxy-12′-(2-methoxyethyl)-11′-methyl-15′-oxo-3,4-dihydro-2H-spiro[naphthalene-1,22′-[20]oxa[13]thia[1,14]diazatetracyclo [14.7.2.0~3,6~.0~19,24~]pentacosa[8,16,18,24]tetraene]-7′-carbaldehyde 13′,13′-dioxide] | 0.076 nM | 922 nM |
| Cc1ncoc1C[C@]1(O)/C=C/C[C@H](C)[C@@H](C)S(=O)(=O)NC(=O)c2ccc3c(c2)N(C[C@@H]2CC[C@H]21)C[C@@]1(CCCc2cc(Cl)ccc21)CO3 [Example 100572, (1S,3′R,6′R,7′S,8′E,11′S,12′R)-6-chloro-7′-hydroxy-11′,12′-dimethyl-7′-((4-methyl-1,3-oxazol-5-yl)methyl)-3,4-dihydro-2H,15′H-spiro[naphthalene-1,22′-[20]oxa[13]thia[1,14]diazatetracyclo [14.7.2.0~3,6~.0~19,24~]pentacosa[8,16,18,24]tetraen]-15′-one 13′,13′-dioxide] | 0.174 nM | 1160 nM |
| Cc1onc(C[C@@]2(O)/C=C/C[C@H](C)[C@@H](C)S(=O)(=O)NC(=O)c3ccc4c(c3)N(C[C@@H]3CC[C@H]32)C[C@@]2(CCCc3cc(Cl)ccc32)CO4)c1C [Example 100573, (1S,3′R,6′R,7′R,8′E,11′S,12′R)-6-chloro-7′-((4,5-dimethyl-1,2-oxazol-3-yl)methyl)-7′-hydroxy-11′,12′-dimethyl-3,4-dihydro-2H,15′H-spiro[naphthalene-1,22′-[20]oxa[13]thia[1,14]diazatetracyclo [14.7.2.0~3,6~.0~19,24~]pentacosa[8,16,18,24]tetraen]-15′-one 13′,13′-dioxide] | 2.07 nM | 7390 nM |
| CO[C@]1(Cc2noc(C)c2C)/C=C/C[C@H](C)[C@@H](C)S(=O)(=O)NC(=O)c2ccc3c(c2)N(C[C@@H]2CC[C@H]21)C[C@@]1(CCCc2cc(Cl)ccc21)CO3 [Example 100574, (1S,3′R,6′R,7′R,8′E,11′S,12′R)-6-chloro-7′-((4,5-dimethyl-1,2-oxazol-3-yl)methyl)-7′-methoxy-11′,12′-dimethyl-3,4-dihydro-2H,15′H-spiro[naphthalene-1,22′-[20]oxa[13]thia[1,14]diazatetracyclo [14.7.2.0~3,6~.0~19,24~]pentacosa[8,16,18,24]tetraen]-15′-one 13′,13′-dioxide] | 1.42 nM | 4320 nM |
| CO[C@@]1(CC(=O)On2nnc3cccnc32)/C=C/C[C@H](C)[C@@H](C)S(=O)(=O)NC(=O)c2ccc3c(c2)N(C[C@@H]2CC[C@H]21)C[C@@]1(CCCc2cc(Cl)ccc21)CO3 [Example 100576, (1S,3′R,6′R,7′S,8′E,11′S,12′R)-6-chloro-7′-methoxy-11′,12′-dimethyl-7′-(2-oxo-2-(3H-[1,2,3]triazolo[4,5-b]pyridin-3-yloxy)ethyl)-3,4-dihydro-2H,15′H-spiro[naphthalene-1,22′-[20]oxa[13]thia[1,14]diazatetracyclo [14.7.2.0~3,6~.0~19,24~]pentacosa[8,16,18,24]tetraen]-15′-one 13′,13′-dioxide] | 1.15 nM | 4090 nM |
| Cc1onc(C[C@]2(O)/C=C/C[C@H](C)[C@@H](C)S(=O)(=O)NC(=O)c3ccc4c(c3)N(C[C@@H]3CC[C@H]32)C[C@@]2(CCCc3cc(Cl)ccc32)CO4)c1C [Example 100578, (1S,3′R,6′R,7′S,8′E,11′S,12′R)-6-chloro-7′-((4,5-dimethyl-1,2-oxazol-3-yl)methyl)-7′-hydroxy-11′,12′-dimethyl-3,4-dihydro-2H,15′H-spiro[naphthalene-1,22′-[20]oxa[13]thia[1,14]diazatetracyclo [14.7.2.0~3,6~.0~19,24~]pentacosa[8,16,18,24]tetraen]-15′-one 13′,13′-dioxide] | 0.089 nM | 595 nM |
| COC(=O)c1nc(C[C@]2(OC)/C=C/C[C@H](C)[C@@H](C)S(=O)(=O)NC(=O)c3ccc4c(c3)N(C[C@@H]3CC[C@H]32)C[C@@]2(CCCc3cc(Cl)ccc32)CO4)oc1C [Example 100583, methyl 2-(((1S,3′R,6′R,7′S,8′E,11′S,12′R)-6-chloro-7′-methoxy-11′,12′-dimethyl-13′,13′-dioxido-15′-oxo-3,4-dihydro-2H-spiro[naphthalene-1,22′-[20]oxa[13]thia[1,14]diazatetracyclo [14.7.2.0~3,6~.0~19,24~]pentacosa[8,16,18,24]tetraen]-7′-yl)methyl)-5-methyl-1,3-oxazole-4-carboxylate] | 0.124 nM | 411 nM |

— patent US10821115B2, “Compounds that inhibit Mcl-1 protein” (priority 2017, dated 2020)
